Results published in patent US20230241257A1, “BIOTIN-MODIFIED DIMER AND USE THEREOF” (THE UNIVERSITY OF TOKYO, priority 2020, published 2023).

What was measured:
[1] = test system: human stomach cancer cells (MKN-45); assay: Experiment 6: pharmacokinetics of Cupid-scFv antibody (48 h before)+^211At-psyche-BR in MKN-45 cancer-bearing mouse models; assay type: in vivo, mice (BALB/cSlc nu/nu)
Method: The present experiment used human stomach cancer cells (MKN-45) expressing carcinoembryonic antigen (CEA). 9-week-old male immunodeficient mice (BALB/cSlc nu/nu) were used. MKN-45 cells (1×10^7/0.1 ml) were transplanted into the mice's subcutis on the right shoulder dorsal side to produce cancer-bearing mouse models. The mice were divided into four groups when the tumor volume became a predetermined size (on Day 12 after the transplantation), and the Cupid-scFv antibody was administered 100 μmol/0.1 ml via the caudal vein of each mouse. Forty-eight hours after administration of the Cupid-scFv antibody, […] (about 0.25 MBq/100 ml) was administered via the caudal vein of each mouse. One minute, 1 hour, 6 hours, and 24 hours after administration of the ^211At-psyche-BR, the mice were euthanized by collecting whole blood from the heart of each mouse under isoflurane anesthesia, and tumor tissues and normal tissues/organs were then excised. Normal tissues/organs: skin (lower right limb), muscle (right gastrocnemius muscle), heart, lung, spleen, pancreas, white fat (upper portion of right side testis), testis (both sides), stomach, stomach contents, small intestine (not including contents), large intestine (not including contents), liver, brown fat (interscapular), submandibular gland, thyroid gland (together with trachea), bone (right femur), cerebrum, eyeballs (both sides), bladder, and urine; the remaining residues were divided into three equal parts, and the three equal parts were defined to be residue-1, residue-2, and residue-3. After that, the weights of blood, plasma, urine, tumor, and normal tissues/organs were measured, and the radioactivity thereof was then measured using a γ counter. The amounts of the ^211At-psyche-BR (radioactivity) accumulated in the blood, plasma, urine, tumor, and normal tissues/organs were calculated. That is to say, the rates (% ID/g) of the ^211At-psyche-BR accumulated per unit weight (g) of the blood, plasma, urine, tumor, and normal tissues/organs, in the administered ^211At-psyche-BR were shown. Regarding accumulation of the ^211At-psyche-BR in the thyroid gland, since the weight of the thyroid gland could not be precisely measured, it was shown that the rate (% ID) of the ^211At-psyche-BR accumulated in the thyroid gland in the administered ^211At-psyche-BR.

[2] = test system: human stomach cancer cells (MKN-45); assay: Experiment 9: pharmacokinetics (6 h) of Cupid-scFv antibody (24 h before)+^211At-psyche-BR in MKN-45 cancer-bearing mouse models; assay type: in vivo, mice (BALB/cSlc nu/nu); conditions: six hours after administration, tumor on Day 8 after transplantation
Method: The present experiment used human stomach cancer cells (MKN-45) expressing carcinoembryonic antigen (CEA). 9-week-old male immunodeficient mice (BALB/cSlc nu/nu) were used. MKN-45 cells (1×10^7/0.1 ml) were transplanted into the mice's subcutis on the right shoulder dorsal side to produce cancer-bearing mouse models. When the tumor volume became a predetermined size (on Day 8 after the transplantation), the Cupid-scFv antibody was administered 100 μmol/0.1 ml via the caudal vein of each mouse. Twenty-four hours after administration of the Cupid-scFv antibody, ^211At-psyche-BR (about 0.30 MBq/100 ml) was administered via the caudal vein of each mouse. […] After that, the weights of blood, plasma, urine, tumor, and normal tissues/organs were measured, and the radioactivity thereof was then measured using a γ counter. The amounts of the ^211At-psyche-BR (radioactivity) accumulated in the blood, plasma, urine, tumor, and normal tissues/organs were calculated. […] Regarding accumulation of the ^211At-psyche-BR in the thyroid gland, since the weight of the thyroid gland could not be precisely measured, it was shown that the rate (% ID) of the ^211At-psyche-BR accumulated in the thyroid gland in the administered ^211At-psyche-BR.

`N=C1N[C@H]2[C@H](CS[C@H]2CCCCNC(=O)CCCCCC(=O)Nc2cc(NC(=O)CCCCCC(=O)NCCCC[C@@H]3SC[C@@H]4NC(=N)N[C@@H]43)cc(C(=O)NCCOCCOCCNC(=O)c3cccc([211At])c3)c2)N1` [^211At-psyche-BR] was tested, and the “Accumulation in the blood” value ([1]; after 1 minute) was 26.4±2.7 % ID/g, the “Accumulation in the kidney” value ([1]; after 1 minute) was 81.7±11.8 % ID/g and the “Accumulation in the liver” value ([1]; after 1 minute) was 31.5±4.3 % ID/g. The “Accumulation in the lung” value ([1]; after 1 minute) was 9.5±0.4 % ID/g, the “Accumulation in the spleen” value ([1]; after 1 minute) was 3.4±0.2 % ID/g and the “Accumulation in the tumor” value ([1]; after 1 minute) was 0.5±0.0 % ID/g. The tumor-to-blood ratio ([1]; after 1 minute) was 0.02±0.00, the tumor-to-muscle ratio ([1]; after 1 minute) was 1.30±0.06 and the “Accumulation in the blood” value ([1]; after 1 hour) was 30.6±3.2 % ID/g. For the same compound, the “Accumulation in the kidney” value ([1]; after 1 hour) was 54.5±4.0 % ID/g, the “Accumulation in the liver” value ([1]; after 1 hour) was 19.8±1.3 % ID/g and the “Accumulation in the lung” value ([1]; after 1 hour) was 12.7±0.6 % ID/g. The “Accumulation in the spleen” value ([1]; after 1 hour) was 6.8±0.3 % ID/g, the “Accumulation in the tumor” value ([1]; after 1 hour) was 3.2±0.5 % ID/g and the tumor-to-blood ratio ([1]; after 1 hour) was 0.10±0.01. For the same compound, the tumor-to-muscle ratio ([1]; after 1 hour) was 5.13±0.67, the “Accumulation in the blood” value ([1]; after 6 hours) was 22.7±2.7 % ID/g and the “Accumulation in the kidney” value ([1]; after 6 hours) was 15.0±2.3 % ID/g. The “Accumulation in the liver” value ([1]; after 6 hours) was 18.7±2.7 % ID/g, the “Accumulation in the lung” value ([1]; after 6 hours) was 7.5±3.3 % ID/g and the “Accumulation in the spleen” value ([1]; after 6 hours) was 9.7±1.0 % ID/g. The “Accumulation in the tumor” value ([1]; after 6 hours) was 9.3±1.4 % ID/g, the tumor-to-blood ratio ([1]; after 6 hours) was 0.42±0.11 and the tumor-to-muscle ratio ([1]; after 6 hours) was 11.42±1.05. The “Accumulation in the thyroid gland” value ([1]; after 24 h) was 0.19±0.03 % ID, the “Accumulation in the blood” value ([1]; after 24 hours) was 1.6±1.0 % ID/g and the “Accumulation in the kidney” value ([1]; after 24 hours) was 5.6±1.0%. For the same compound, the “Accumulation in the liver” value ([1]; after 24 hours) was 8.9±1.7%, the “Accumulation in the lung” value ([1]; after 24 hours) was 2.9±0.3% and the “Accumulation in the spleen” value ([1]; after 24 hours) was 4.6±1.6%. The “Accumulation in the tumor” value ([1]; after 24 hours) was 7.4±2.3%, the “administered amount excreted (blood)” value ([1]; after 24 hours) was “about 98%” and the tumor-to-blood ratio ([1]; after 24 hours) was 5.39±1.56. The tumor-to-muscle ratio ([1]; after 24 hours) was 27.98±2.34 and the “Accumulation in the tumor” value [2] was 31.0±3.4 % ID/g.
